Measured values: US8044022B2, “Hyaluronic acid binding peptides enhance host defense against pathogenic bacteria” (priority 2005, dated 2011)

Tests used:
[1] = test system: S. aureus PS80; experiment: Modified NCCLS macrodilution broth method, antimicrobial activity; type: cell-based, Staphylococcus aureus; conditions: 1, 10 and 100 ug/mL; quantitative cultures at 4, 8, 24 h; vs controls without HABPs
Method: The antimicrobial activity of HABP35 and HABP53 was determined using a modified National Committee for Clinical Laboratory Standards (NCCLS) macrodilution broth method. S. aureus PS80 was grown overnight on tryptic soy agar plates containing 5% sheep blood. Colonies were suspended in sterile saline and dilutions made to achieve a final concentration of 5×10^5 CFU/ml in each tube containing 5 ml of Mueller-Hinton and BP35 or 53. The HABPs were tested at 1, 10, and 100 ug/mL concentrations. Once inoculated, the tubes were incubated in ambient air at 37° C. and bacterial concentration determined at 4, 8, and 24 hours. Modification of testing parameters included the 10 fold dilution of the HABPs and the determination of bacterial counts at 4, 8 and 24 hours rather than the visual determination of growth or inhibition.

[2] = test system: contact hypersensitivity; conditions: mice; cited from earlier work
[3] = test system: leukocyte adhesion to HA; conditions: cited from earlier work
[4] = test system: S. aureus strain PS80; experiment: Mouse model of S. aureus surgical wound infection; type: in vivo, C57BL6 mice
Method: Bacterial strains. S. aureus strain PS80 (serotype 8) was obtained from the American Type Culture collection (#27700) and is a potent inducer of intraabdominal abscess formation. S. aureus COL is a methicillin resistant strain that produces a serotype 5 capsule. Staphylococci were cultivated for 24 h at 37° C. on Columbia agar (Difco Laboratories, Detroit, Mich.) supplemented with 2% NaCl.
Mouse model of S. aureus wound infection. Mice (C57BL6, male, 6-8 wk old) were obtained from Jackson Laboratories (Bar Harbor, Me.). Groups of mice (N=4/group/experiment) were anesthetized with 100 mg/kg ketamine and 10 mg/kg xylazine, their right thighs were shaved, and the surgical area was disinfected with iodine and 70% ethanol. An incision was made in the skin to expose the thigh muscle, and a 1-cm incision was made with a scalpel into the thigh muscle to the depth of the bone. The muscle was then closed with one 4-0 silk suture, and 10 μl of a S. aureus suspension ranging in dose from 10^2 to 10^4 CFU was introduced into the incision under the suture. The skin was closed with four additional Prolene sutures. The mice were euthanized at 3 days post-surgery. The wounded muscle tissue was excised, weighed (˜0.08 g), and homogenized in 1 ml of tryptic soy broth. Serial dilutions of the homogenates were plated in duplicate and results were expressed as CFU/g tissue. Peptides were administered to animals in two ways. For most experiments, HABPs were solubilized in PBS and administered with a pipet into the wound in a 10 μl volume following challenge with bacteria. A 100 μg dose was used for most experiments. For therapeutic studies, peptide was administered via a 1 ml tuberculin syringe fitted with a 25 gauge needle in a 0.25 ml volume injected into the thigh muscle containing the wound distal from the incision site.
Gross pathology and histologic analysis of host response. […] Histological examination of these wounds confirmed these findings. Muscle tissue was harvested from mice at designated intervals post-surgery, fixed in 10% buffered formalin, and mounted in paraffin; 5 to 6-μm sections were cut and stained with hematoxylin and eosin for microscopic examination. […] The cellular infiltrate was primarily comprised of PMNs and fibrin.
Statistical analyses. All animal experiments were performed at least two times and the data pooled. Comparison of S. aureus CFU/g tissue was made by the Welch modification of the unpaired Student t test (InStat, GraphPad Software, San Diego, Calif.).

In the case of GAHWQFNALTVRGGGS [HABP52], the “growth of S. aureus” value [1] is given as “not inhibited”, the contact hypersensitivity responses [2] is given as “inhibits contact hypersensitivity responses” and the “leukocyte adhesion to HA” value [3] is given as “inhibit leukocyte adhesion to HA”. The “bacterial burden at the wound site compared with PBS” value ([4]; 100 μg into wound at time of challenge with 10^2 CFU, 3 days later) was “significant decrease” and the “log reduction in bacterial numbers vs PBS” value ([4]; challenge with 10^3 CFU, 3 days) was roughly 3 log.
